Laboratory results: PMC3408863 (European journal of medicinal chemistry, 2012)
Where a name gives a salt, the structure may show the parent alone.

What was measured:
[1] = system: human plasma; conditions: comparators in clinical trials; cited from earlier work
[2] = target: Human FIIa (Homo sapiens, UniProt P00734); test: Chromogenic substrate hydrolysis assay, FIIa; format: biochemical; conditions: FXa over Human FIIa
[3] = target: Bovine Chymotrypsin (Bos taurus, UniProt P00766); test: Chromogenic substrate hydrolysis assay, chymotrypsin; format: biochemical; conditions: FXa over chymotrypsin
[4] = target: Human FVIIa (Homo sapiens, UniProt P08709); test: Chromogenic substrate hydrolysis assay, FVIIa; format: biochemical; conditions: FXa over Human FVIIa
Human FVIIa, sequence (P08709 213-466 limits assumed): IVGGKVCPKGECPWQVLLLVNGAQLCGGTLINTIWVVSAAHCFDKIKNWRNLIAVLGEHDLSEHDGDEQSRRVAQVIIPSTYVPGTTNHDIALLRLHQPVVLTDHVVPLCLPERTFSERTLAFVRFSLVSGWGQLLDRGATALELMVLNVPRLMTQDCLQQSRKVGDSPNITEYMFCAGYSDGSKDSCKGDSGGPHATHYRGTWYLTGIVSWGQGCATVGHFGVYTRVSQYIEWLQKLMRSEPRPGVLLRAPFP
Human FVIIa, sequence (P08709 61-212 limits assumed): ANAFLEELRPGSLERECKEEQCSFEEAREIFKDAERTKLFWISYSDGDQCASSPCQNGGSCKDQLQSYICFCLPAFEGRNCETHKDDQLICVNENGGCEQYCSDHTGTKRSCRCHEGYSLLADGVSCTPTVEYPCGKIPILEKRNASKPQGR
Human FVIIa, sequence (P13726 33-295 partner): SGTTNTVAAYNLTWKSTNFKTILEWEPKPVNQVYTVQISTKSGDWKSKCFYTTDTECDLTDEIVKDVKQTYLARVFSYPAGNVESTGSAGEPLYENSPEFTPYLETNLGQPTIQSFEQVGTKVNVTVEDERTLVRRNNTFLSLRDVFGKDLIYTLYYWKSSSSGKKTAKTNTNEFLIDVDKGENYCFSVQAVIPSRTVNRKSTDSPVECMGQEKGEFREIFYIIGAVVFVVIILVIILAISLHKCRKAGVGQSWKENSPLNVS

[5] = target: T1, Human FXIIa (Homo sapiens, UniProt P00748); test: Chromogenic substrate hydrolysis assay, FXIIa; format: biochemical; conditions: FXa over Human FXIIa
T1 sequence (P00748 373-615 limits assumed): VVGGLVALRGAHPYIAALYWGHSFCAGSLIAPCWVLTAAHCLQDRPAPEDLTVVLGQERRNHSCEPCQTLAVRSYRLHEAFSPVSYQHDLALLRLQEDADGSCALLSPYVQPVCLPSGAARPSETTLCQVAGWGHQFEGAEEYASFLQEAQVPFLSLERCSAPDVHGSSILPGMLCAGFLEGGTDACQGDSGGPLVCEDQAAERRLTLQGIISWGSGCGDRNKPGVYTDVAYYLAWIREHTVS
T1 sequence (P00748 20-372 limits assumed): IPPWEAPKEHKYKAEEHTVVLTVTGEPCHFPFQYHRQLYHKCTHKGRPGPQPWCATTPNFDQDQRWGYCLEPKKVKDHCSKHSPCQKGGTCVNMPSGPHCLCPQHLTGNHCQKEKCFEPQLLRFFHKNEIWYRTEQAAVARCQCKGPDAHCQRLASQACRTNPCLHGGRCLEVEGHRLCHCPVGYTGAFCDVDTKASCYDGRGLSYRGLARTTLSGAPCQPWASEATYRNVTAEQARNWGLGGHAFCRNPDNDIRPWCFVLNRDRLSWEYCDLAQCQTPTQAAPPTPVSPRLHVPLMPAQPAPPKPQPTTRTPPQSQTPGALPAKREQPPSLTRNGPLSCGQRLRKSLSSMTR

[6] = target: Human FXIa (Homo sapiens, UniProt P03951); test: Chromogenic substrate hydrolysis assay, FXIa; format: biochemical; conditions: FXa over Human FXIa
Human FXIa, sequence (P03951 388-625 limits assumed): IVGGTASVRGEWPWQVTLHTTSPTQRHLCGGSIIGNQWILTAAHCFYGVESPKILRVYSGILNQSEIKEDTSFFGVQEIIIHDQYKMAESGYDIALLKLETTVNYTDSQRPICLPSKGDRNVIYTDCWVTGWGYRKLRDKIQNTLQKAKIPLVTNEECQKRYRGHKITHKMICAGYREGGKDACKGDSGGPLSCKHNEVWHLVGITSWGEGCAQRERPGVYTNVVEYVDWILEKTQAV
Human FXIa, sequence (P03951 19-387 limits assumed): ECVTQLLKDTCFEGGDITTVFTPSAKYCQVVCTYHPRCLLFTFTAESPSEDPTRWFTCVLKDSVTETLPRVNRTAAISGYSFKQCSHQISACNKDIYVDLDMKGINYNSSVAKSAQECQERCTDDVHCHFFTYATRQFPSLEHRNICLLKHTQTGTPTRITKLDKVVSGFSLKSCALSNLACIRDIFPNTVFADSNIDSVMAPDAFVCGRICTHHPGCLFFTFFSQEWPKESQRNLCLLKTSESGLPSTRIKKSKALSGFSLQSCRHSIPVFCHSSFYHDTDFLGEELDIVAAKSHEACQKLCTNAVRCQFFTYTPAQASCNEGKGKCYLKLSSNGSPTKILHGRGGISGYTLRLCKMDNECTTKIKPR

[7] = target: human FXa (Homo sapiens, UniProt P00742); test: Direct inhibition of FXa, chromogenic substrate hydrolysis assay; format: biochemical
human FXa, sequence (P00742 235-488 limits assumed): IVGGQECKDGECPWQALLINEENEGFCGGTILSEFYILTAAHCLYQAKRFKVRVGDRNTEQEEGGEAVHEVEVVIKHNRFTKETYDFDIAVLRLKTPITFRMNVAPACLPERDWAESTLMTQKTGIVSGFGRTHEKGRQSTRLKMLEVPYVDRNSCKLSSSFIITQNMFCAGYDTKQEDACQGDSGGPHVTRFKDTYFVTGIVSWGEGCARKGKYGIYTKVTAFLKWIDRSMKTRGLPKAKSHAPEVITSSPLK
human FXa, sequence (P00742 41-179 limits assumed): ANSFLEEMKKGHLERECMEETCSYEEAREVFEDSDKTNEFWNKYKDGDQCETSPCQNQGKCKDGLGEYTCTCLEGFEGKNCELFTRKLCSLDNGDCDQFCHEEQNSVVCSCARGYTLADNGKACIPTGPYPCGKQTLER

[8] = target: T2, Bovine Trypsin (Bos taurus, UniProt P00760); test: Chromogenic substrate hydrolysis assay, trypsin; format: biochemical
T2 sequence (P00760 24-246): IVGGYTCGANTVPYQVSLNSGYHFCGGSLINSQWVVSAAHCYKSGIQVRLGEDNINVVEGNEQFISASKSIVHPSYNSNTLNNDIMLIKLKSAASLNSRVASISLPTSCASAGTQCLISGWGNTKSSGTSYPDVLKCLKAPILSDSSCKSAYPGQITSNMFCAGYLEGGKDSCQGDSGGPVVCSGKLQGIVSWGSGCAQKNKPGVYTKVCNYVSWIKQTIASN

[9] = target: Human FIXa (Homo sapiens, UniProt P00740); test: Chromogenic substrate hydrolysis assay, FIXa; format: biochemical; conditions: FXa over Human FIXa
Human FIXa, sequence (P00740 227-461 limits assumed): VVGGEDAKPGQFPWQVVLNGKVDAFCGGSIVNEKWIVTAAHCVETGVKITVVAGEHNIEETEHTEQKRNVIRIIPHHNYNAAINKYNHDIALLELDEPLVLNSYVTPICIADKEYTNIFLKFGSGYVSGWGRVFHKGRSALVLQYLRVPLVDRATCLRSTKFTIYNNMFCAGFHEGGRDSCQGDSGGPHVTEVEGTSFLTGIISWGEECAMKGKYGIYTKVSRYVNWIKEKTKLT
Human FIXa, sequence (P00740 47-191 limits assumed): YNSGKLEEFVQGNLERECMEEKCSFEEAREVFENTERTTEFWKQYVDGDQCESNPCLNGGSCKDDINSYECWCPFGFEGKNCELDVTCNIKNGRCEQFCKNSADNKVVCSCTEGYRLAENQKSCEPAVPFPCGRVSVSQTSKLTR

Row | Selectivity Index [2] | selectivity against chymotrypsin [3] | Selectivity Index [4] | Selectivity Index [5] | Selectivity Index [6] | Ki [7] | fold decrease in IC50 relative to inhibitor 13 ([7]; FXa inhibition, relative to 13 (IC50 = 16.4 μM)) | selectivity for FXa inhibition over other coagulation enzymes ([7]; over FIIa, FVIIa, FIXa, FXIa, and FXIIa) | IC50 [8] | Selectivity Index ([8]; FXa over Bovine Trypsin) | selectivity against trypsin ([8]; FXa over trypsin) | Selectivity Index [9] | Compound | PT, concentration doubling the clotting time [1]
1 | – | – | – | – | – | – | – | – | – | – | – | – | CN(C)Cc1nccn1-c1ccc(NC(=O)c2cc(C(F)(F)F)nn2-c2ccc3onc(N)c3c2)c(F)c1 [razaxaban, 1-(3′-aminobenzisoxazol-5′-yl)-3-trifluoromethyl-N-[2-fluoro-4-[(2′-dimethylamino-methyl)imidazol-1-yl]phenyl]-1H-pyrazole-5-carboxyamide hydrochloride] | 3.8 µM
2 | >1852 | ≥ 279 fold | >3703 | >1852 | >1852 | 135 nM | ~ 60 fold | at least 1852 fold | > 100000 nM | >370 | at least 370 fold | >3703 | O=C(Nc1ccc(N2CCOCC2=O)cc1)[C@H]1Cc2ccccc2CN1C(=O)Cc1ccc(Cl)cc1 [Inhibitor 47, (R)-2-(2-(4-chlorophenyl)acetyl)-N-(4-(3-oxomorpholino)phenyl)-1,2,3,4-tetrahydro-isoquinoline-3-carboxamide] | –
